From paper PMC10247784, “Physiological activation of human and mouse bitter taste receptors by bile acids” (Communications Biology, 2023)
Values joined by “and” are separate entries in the source; they are usually repeats but may differ in a detail not shown here. Equal values may be shown once.

Biological target: T1, human TAS2R1 (Homo sapiens, UniProt Q9NYW7)
T1 construct: expressed in transfected cells; host or cells: HEK293T-Gα16gust44
T1 sequence (Q9NYW7 1-299): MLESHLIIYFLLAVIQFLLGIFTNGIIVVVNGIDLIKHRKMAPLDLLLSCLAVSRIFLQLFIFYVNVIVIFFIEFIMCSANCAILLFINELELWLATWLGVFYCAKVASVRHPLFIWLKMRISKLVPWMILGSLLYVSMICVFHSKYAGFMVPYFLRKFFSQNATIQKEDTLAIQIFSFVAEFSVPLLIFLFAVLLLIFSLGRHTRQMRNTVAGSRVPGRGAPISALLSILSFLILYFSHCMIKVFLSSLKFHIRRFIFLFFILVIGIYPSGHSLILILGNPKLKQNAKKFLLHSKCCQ
Assay: Calcium imaging assay (FLIPR), HEK293T-Gα16gust44 cells transfected with human TAS2R1
Format: cell-based
Outline: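 Bile acids from DMSO stocks are applied to dye-loaded cells one day after transient receptor transfection, and calcium-dependent fluorescence is recorded. Maximum signal is standardized to basal and normalized to buffer-only wells, with empty-vector signal subtracted.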

C[C@H](CCC(=O)O)[C@H]1CC[C@H]2[C@@H]3[C@H](O)C[C@@H]4C[C@H](O)CC[C@]4(C)[C@H]3CC[C@]12C [Chenodeoxycholic Acid, chenodeoxycholic acid]
Efficacy = maximal amplitude (ΔF/F) (TAS2R1, bile acids, mean): 0.1118 | Efficacy (maximal amplitude ΔF/F), individual data points (TAS2R1, bile acids, single replicates, listed as CDCA): 0.09822 and 0.1595 and 0.07759 | RLU (Time 0 s): 0 RLU | RLU (Time 2.015 s): 19.0362 RLU | RLU (Time 4.015 s): 1.217 RLU | RLU (Time 6.015 s): -17.015 RLU | RLU (Time 8.015 s): -2.669 RLU | RLU (Time 12.015 s): 20.3444 RLU | RLU (Time 14.015 s): 20.4897 RLU | RLU (Time 16.015 s): 20.4897 RLU | RLU (Time 18.015 s): 0.1896 RLU | RLU (Time 18.796 s): 35.4441 RLU | RLU (Time 20.796 s): 34.972 RLU | RLU (Time 22.796 s): 66.6032 RLU | RLU (Time 24.796 s): 169.759 RLU | RLU (Time 26.796 s): 276.637 RLU | RLU (Time 28.796 s): 430.728 RLU | RLU (Time 30.796 s): 521.85 RLU | RLU (Time 32.796 s): 667.246 RLU | RLU (Time 34.796 s): 744.49 RLU | RLU (Time 36.796 s): 777.672 RLU | RLU (Time 38.796 s): 835.786 RLU | RLU (Time 40.796 s): 853.586 RLU | RLU (Time 42.796 s): 876.11 RLU | RLU (Time 44.796 s): 905.241 RLU | RLU (Time 46.796 s): 902.191 RLU | RLU (Time 48.796 s): 919.121 RLU | RLU (Time 50.796 s): 927.172 RLU | RLU (Time 52.796 s): 893.665 RLU | RLU (Time 54.796 s): 936.083 RLU | RLU (Time 56.796 s): 944.124 RLU | RLU (Time 58.796 s): 915.714 RLU | RLU (Time 60.796 s): 876.524 RLU | RLU (Time 62.796 s): 877.876 RLU | RLU (Time 64.796 s): 906.896 RLU | RLU (Time 66.796 s): 861.974 RLU | RLU (Time 68.796 s): 872.092 RLU | RLU (Time 70.796 s): 871.317 RLU | RLU (Time 72.796 s): 854.469 RLU | RLU (Time 74.796 s): 844.188 RLU | RLU (Time 76.796 s): 841.862 RLU | RLU (Time 78.796 s): 815.084 RLU | RLU (Time 80.796 s): 833.544 RLU | RLU (Time 82.796 s): 792.555 RLU | RLU (Time 84.796 s): 783.457 RLU | RLU (Time 86.796 s): 757.585 RLU | RLU (Time 88.796 s): 790.002 RLU | RLU (Time 90.796 s): 748.006 RLU | RLU (Time 92.796 s): 752.186 RLU | RLU (Time 94.796 s): 735.827 RLU | RLU (Time 96.796 s): 731.254 RLU | RLU (Time 98.796 s): 711.692 RLU | RLU (Time 100.796 s): 698.367 RLU | RLU (Time 102.796 s): 713.847 RLU | RLU (Time 104.796 s): 673.465 RLU | RLU (Time 106.796 s): 693.426 RLU | RLU (Time 108.796 s): 681.535 RLU | RLU (Time 110.796 s): 647.896 RLU | RLU (Time 112.796 s): 643.349 RLU | RLU (Time 114.796 s): 607.76 RLU | RLU (Time 116.796 s): 609.573 RLU | RLU (Time 118.796 s): 614.947 RLU | RLU (Time 120.796 s): 582.22 RLU | RLU (Time 122.796 s): 589.185 RLU | RLU (Time 124.796 s): 584.345 RLU | RLU (Time 126.796 s): 601.503 RLU | RLU (Time 128.796 s): 551.854 RLU | RLU (Time 130.796 s): 581.558 RLU | RLU (Time 132.796 s): 570.089 RLU | RLU (Time 134.796 s): 541.966 RLU | RLU (Time 136.796 s): 537.391 RLU | RLU (Time 137.562 s): 528.381 RLU | RLU (Time 143.562 s): 528.401 RLU | RLU (Time 149.562 s): 492.752 RLU | RLU (Time 155.562 s): 464.959 RLU | RLU (Time 161.562 s): 428.355 RLU | RLU (Time 167.562 s): 423.067 RLU | RLU (Time 173.562 s): 376.724 RLU | RLU (Time 179.562 s): 392.276 RLU | RLU (Time 185.562 s): 341.893 RLU | RLU (Time 191.562 s): 346.95 RLU | RLU (Time 197.562 s): 320.481 RLU | RLU (Time 203.562 s): 327.574 RLU | RLU (Time 209.562 s): 318.301 RLU | RLU (Time 215.562 s): 277.825 RLU | RLU (Time 221.562 s): 283.821 RLU | RLU (Time 227.562 s): 172.224 RLU | RLU (Time 233.562 s): 155.786 RLU | RLU (Time 239.562 s): 141.722 RLU | RLU (Time 245.562 s): 124.55 RLU | RLU (Time 293.562 s): 126.733 RLU | RLU (Time 299.562 s): 134.725 RLU | RLU (calcium trace, sheet TAS2R1, Time 305.562 s): 138.341 RLU | RLU (calcium trace, sheet TAS2R1, Time 311.562 s): 138.414 RLU | RLU (calcium trace, sheet TAS2R1, Time 317.562 s): 144.044 RLU | RLU (calcium trace, sheet TAS2R1, Time 323.562 s): 138.244 RLU | RLU (calcium trace, sheet TAS2R1, Time 329.562 s): 121.3 RLU | RLU (calcium trace, sheet TAS2R1, Time 335.562 s): 104.786 RLU | RLU (calcium trace, sheet TAS2R1, Time 341.562 s): 124.793 RLU | RLU (calcium trace, sheet TAS2R1, Time 347.562 s): 124.739 RLU | RLU (calcium trace, sheet TAS2R1, Time 353.562 s): 136.304 RLU | RLU (calcium trace, sheet TAS2R1, Time 359.562 s): 146.172 RLU | Δ F/F (conc. 0,01 mM, TAS2R1): 0.1118 | Δ F/F (conc. 0,00003 mM, TAS2R1): -0.002448 | Δ F/F (conc. 0,0001 mM, TAS2R1): -0.01316 | Δ F/F (conc. 0,0003 mM, TAS2R1): -0.003718 | Δ F/F (conc. 0,001 mM, TAS2R1): 0.01001 | Δ F/F (conc. 0,003 mM, TAS2R1): 0.03254 | Activation threshold concentration TAS2R1 (lowest concentration with significantly increased fluorescence vs empty vector (p < 0.01)): 3 µM and 3.00 µM | Receptor response TAS2R1 (screening): activated
